The text below walks through data of patent US20230285596A1, “COMPOSITIONS AND METHODS FOR THE TREATMENT OF NIEMANN-PICK TYPE C1 DISEASE” (Voyager Therapeutics, Inc, priority 2020, published 2023).

For series [1], the system named is animal models of NPC disease. Particulars: biweekly intrathecal (IT) injection; cited from earlier work.
Another series relates to HEK293 cells. Briefly: NPC1 protein expression in HEK293 cells transfected with viral genome constructs (ELISA and Western Blot, normalized to GAPDH and transfection efficiency). It is filed as cell-based. Particulars: for % over Ref. (% overexpression compared to that of the reference ITR_ITR 2): transfection, NPC1 protein vs reference ITR_ITR 2 (SEQ ID NO: 1753), Table 6; for NPC1 expression normalized to GAPDH and transfection efficiency: EF-1a promoter variants with wtNPC1, FIG. 2. From the text:
The viral genome constructs encoding NPC1 generated, and investigated for expression of NPC1 protein in vitro. Use of different promoters (e.g., CBA promoters or variants thereof, CMV promoters and variants thereof, EF1a promoter variants) and/or codon optimized nucleotide sequences encoding the NPC1 protein (e.g., SEQ ID NO: 1750 or SEQ ID NO: 1749) (Table 6). An additional set of viral genome constructs were also investigated, testing different combinations of promoters and codon optimized sequences (Tables 7, 9 and 10).
In order to assess NPC1 expression, the viral genome constructs comprising a promoter operably linked to a transgene encoding were transfected into HEK293 cells. NPC1 protein level was determined by ELISA and Western Blot, and normalized to GAPDH control and transfection efficiency. The expression of NPC1 was calculated as percent overexpression relative to the reference construct (ITR_ITR 2 (SEQ ID NO: 1753) which comprises promoter variant 8 (SEQ ID NO: 1782) and the wild-type nucleotide sequence encoding NPC1 (SEQ ID NO: 1747)) (% over reference or % overexpression to reference).
Table 9 summarizes the constructs tested that comprise promoter variant 11 (SEQ ID NO: 1785), promoter variant 13 (SEQ ID NO: 1787), promoter variant 15 (SEQ ID NO: 1789), or promoter variant 18 (SEQ ID NO: 1791), operably linked to a transgene encoding NPC1 (wild-type or codon optimized nucleotide sequences encoding NPC1). These constructs were transfected into HEK293 cells, and the NPC1 protein expression was measured by ELISA and/or western blot and normalized to expression of a GAPDH control and transfection efficiency. The percent overexpression compared to a reference construct (ITR_ITR2 (SEQ ID NO: 1753), which comprises promoter variant 8 (SEQ ID NO: 1782) and the wild-type nucleotide sequence encoding NPC1 (SEQ ID NO: 1747)) was then calculated for each construct tested (% overexpression to reference) (Table 9, FIGS. 2-3).

A further series concerns NPC1 patient fibroblasts. Briefly: NPC1 protein expression in NPC1 patient fibroblasts. It counts as cell-based, human. As to conditions: transduced, FIG. 10B. The source says:
NPC1/2 is overexpressed in HEK 293 cells using the AAV vector of Example 1 or other method of transfection. Western Blot and ELISA detection protocols are optimized using routine experimentation to establish assays for NPC1/2 protein detection. These and additional biochemical studies are used to validate assays and establish cell lines for additional in vitro analysis. For example, Western Blot and ELISA assays can be performed and optimized using fibroblast cell lines, which may be obtained from Coriell Institute (Camden, N.J., United States). Fibroblast cell lines can be from healthy individual donors (e.g., Coriell catalog nos. GM00038, GM00302, GM00500, GM00969, and/or GM05758—referred to respectively herein as H1, H2, H3, H4, and H5 cell lines) or from diagnosed Niemann-Pick Disease, Type C1 patient donors (e.g., Coriell catalog nos. GM00110, GM03123, GM18436, and/or GM23162 referred to respectively herein as N1, N2, N3, and N4 cell lines).
NPC1 protein expression was assessed in healthy and NPC1 patient fibroblasts according to the assays described in Example 2. […] ITR_ITR 1 rescued NPC1 protein to near 100% relative to healthy fibroblasts. ITR_ITR 3 and ITR_ITR 5 rescued NPC1 protein to 100% or greater relative to healthy fibroblasts. […]

The subject of another series is human neuronal cells. Nature of the series: NPC1 protein expression in human neuronal cells. It counts as cell-based. As to conditions: human neurons, transduced; FIG. 10A. From the text: Cell-lines and reagents: Standard cell-lines are used for initial screening. This includes lines from multiple species to align with in vivo studies. Since transduction of both neuronal and non-neuronal cell types are needed in vivo, two neuronal and two non-neuronal cell types are used for in vitro screening. These cell lines include naïve neuronal SK-N-AS cells (procured from ATCC), primary neuronal cultures from NPC1^−/− mice (see below), immortalized human hepatocytes (procured from Creative Bioarray or ATCC), NPC1 patient fibroblasts (procured from Coriell) and/or iPS Cells derived from NPC1 patients (Yu, Xiao-Hua, et al. “NPC1, intracellular cholesterol trafficking and atherosclerosis.”Clinica chimica acta 429 (2014): 69-75, the disclosure of which is incorporated by reference in its entirety). Example cell lines for use in assays described herein include fibroblast cell lines, which may be procured from Coriell Institute (Camden, N.J., United States). […]
NPC1 protein expression was further assessed for constructs ITR_ITR 2, ITR_ITR 1, ITR_ITR 3, ITR_ITR 4, and ITR_ITR 5 (SEQ ID NOs: 1753, 1752, and 1754-1756, respectively) in hepatocytes (FIG. 5, left graph) and constructs ITR_ITR 2, ITR_ITR 1, ITR_ITR 3, ITR_ITR 4, ITR_ITR 5, ITR_ITR 6, and ITR_ITR 7 (SEQ ID NOs: 1753, 1752, and 1754-1758, respectively) in human neuronal cells (FIG. 5, right graph). […]

Setting [2] is: % overexpression vs reference, Table 8.

Regarding 2-hydroxypropyl-β-cyclodextrin, the “efficacy in animal models of NPC disease” value in series [1] was “effectively delay the onset of neurological signs, ameliorate cerebellar and liver dysfunction, and prolong lifespan”.
For “wtNPC1: Wild type Human NPC1 Coding Sequence, SEQ ID NO: 1747 [reference compound]”, in the series with HEK293 cells (setting [2]), the “NPC1 expression, CBA promoter with intron” value amounted to 72%; the “NPC1 expression, CBA promoter without intron” value is on record as −15%; the “NPC1 expression, CMV promoter with intron” value is reported as 356%; the “NPC1 expression, CMV promoter without intron” value is 203%. Besides, the “NPC1 expression, Promoter Variant 8 (SEQ ID NO: 1782) with intron” value with HEK293 cells (setting [2]) is 311%.
On to “ITR_ITR 7: Viral genome SEQ ID NO: 1758: short CBA promoter (SEQ ID NO: 1735); WT NPC1 protein coding sequence”, for which the “% over Ref. (% overexpression compared to that of the reference ITR_ITR 2)” value in the series with HEK293 cells is reported as −15%.
As for `CCCCN1C[C@H](O)[C@@H](O)[C@H](O)[C@H]1CO` [Miglustat], the “efficacy in animal models of NPC disease” value in series [1] is “effectively delay the onset of neurological signs, ameliorate cerebellar and liver dysfunction, and prolong lifespan”.
For “ITR_ITR 41: Viral genome SEQ ID NO: 1833: CMVie enhancer (SEQ ID NO: 1737); short CBA promoter; WT NPC1 protein coding sequence”, the “% over Ref. (% overexpression compared to that of the reference ITR_ITR 2)” value with HEK293 cells stood at 165%.

B1: Promoter Variant 15: EF-1a promoter variant, 252 nt, SEQ ID NO: 1789 (nucleic acid)
DNA: GGTGGAGAAGAGCATGCGTGAGGCTCCGGTGCCCGTCAGTGGGCAGAGCGCACATCGCCCACAGTCCCCGAGAAGTTGGGGGGAGGGGTCGGCAATTGAACCGGTGCCTAGAGAAGGTGGCGCGGGGTAAACTGGGAAAGTGATGTCGTGTACTGGCTCCGCCTTTTTCCCGAGGGTGGGGGAGAACCGTATATAAGTGCAGTAGTCGCCGTGAACGTTCTTTTTCGCAACGGGTTTGCCGCCAGAACACAG
As for B1, the “NPC1 expression normalized to GAPDH and transfection efficiency” value (“NPC1 expression normalized” for short) in the series with HEK293 cells is recorded as “increased NPC1 expression relative to the ITR_ITR 2 reference construct”.

B2: CMV promoter: short CMV promoter, 205 nt, SEQ ID NO: 1736 (nucleic acid)
DNA: GTGATGCGGTTTTGGCAGTACATCAATGGGCGTGGATAGCGGTTTGACTCACGGGGATTTCCAAGTCTCCACCCCATTGACGTCAATGGGAGTTTGTTTTGGCACCAAAATCAACGGGACTTTCCAAAATGTCGTAACAACTCCGCCCCATTGACGCAAATGGGCGGTAGGCGTGTACGGTGGGAGGTCTATATAAGCAGAGCTC
B2: the “NPC1 expression (NPC1/B-actin)” value with NPC1 patient fibroblasts was “increased expression of NPC1 compared to Promoter Variant 11”.

B3: Promoter Variant 13: EF-1a promoter variant, 241 nt, SEQ ID NO: 1787 (nucleic acid)
DNA: GCATGCGTGAGGCTCCGGTGCCCGTCAGTGGGCAGAGCGCACATCGCCCACAGTCCCCGAGAAGTTGGGGGGAGGGGTCGGCAATTGAACCGGTGCCTAGAGAAGGTGGCGCGGGGTAAACTGGGAAAGTGATGTCGTGTACTGGCTCCGCCTTTTTCCCGAGGGTGGGGGAGAACCGTATATAAGTGCAGTAGTCGCCGTGAACGTTCTTTTTCGCAACGGGTTTGCCGCCAGAACACAG
As for B3, the “NPC1 expression normalized” value in the series with HEK293 cells is reported as “increased NPC1 expression relative to the ITR_ITR 2 reference construct”.

B4: Promoter Variant 11: EF-1a promoter variant, 236 nt, SEQ ID NO: 1785 (nucleic acid)
DNA: CGTGAGGCTCCGGTGCCCGTCAGTGGGCAGAGCGCACATCGCCCACAGTCCCCGAGAAGTTGGGGGGAGGGGTCGGCAATTGAACCGGTGCCTAGAGAAGGTGGCGCGGGGTAAACTGGGAAAGTGATGTCGTGTACTGGCTCCGCCTTTTTCCCGAGGGTGGGGGAGAACCGTATATAAGTGCAGTAGTCGCCGTGAACGTTCTTTTTCGCAACGGGTTTGCCGCCAGAACACAG
Turning to B4, the “NPC1 expression (NPC1/B-actin)” value in the series on human neuronal cells is recorded as “increased expression of NPC1 compared to the CMV promoter”. For the same molecule, the “NPC1 expression normalized” value in the series on HEK293 cells is “increased NPC1 expression relative to the ITR_ITR 2 reference construct”.

B5: Promoter Variant 18: EF-1a promoter variant, 263 nt, SEQ ID NO: 1791 (nucleic acid)
DNA: GTCATCACTGAGGTGGAGAAGAGCATGCGTGAGGCTCCGGTGCCCGTCAGTGGGCAGAGCGCACATCGCCCACAGTCCCCGAGAAGTTGGGGGGAGGGGTCGGCAATTGAACCGGTGCCTAGAGAAGGTGGCGCGGGGTAAACTGGGAAAGTGATGTCGTGTACTGGCTCCGCCTTTTTCCCGAGGGTGGGGGAGAACCGTATATAAGTGCAGTAGTCGCCGTGAACGTTCTTTTTCGCAACGGGTTTGCCGCCAGAACACAG
Consider B5, for which the “NPC1 expression normalized” value with HEK293 cells is “increased NPC1 expression relative to the ITR_ITR 2 reference construct”.
